# Reference: US20250268903A1, “RXFP1 AGONISTS” (BRISTOL-MYERS SQUIBB COMPANY, priority 2021, published 2025)
# pEC50: −log10 of the molar value.
# Target: T1, human RXFP1 (Homo sapiens, UniProt Q9HBX9)
# T1 construct: expressed in transfected cells
# T1 sequence (Q9HBX9 1-757): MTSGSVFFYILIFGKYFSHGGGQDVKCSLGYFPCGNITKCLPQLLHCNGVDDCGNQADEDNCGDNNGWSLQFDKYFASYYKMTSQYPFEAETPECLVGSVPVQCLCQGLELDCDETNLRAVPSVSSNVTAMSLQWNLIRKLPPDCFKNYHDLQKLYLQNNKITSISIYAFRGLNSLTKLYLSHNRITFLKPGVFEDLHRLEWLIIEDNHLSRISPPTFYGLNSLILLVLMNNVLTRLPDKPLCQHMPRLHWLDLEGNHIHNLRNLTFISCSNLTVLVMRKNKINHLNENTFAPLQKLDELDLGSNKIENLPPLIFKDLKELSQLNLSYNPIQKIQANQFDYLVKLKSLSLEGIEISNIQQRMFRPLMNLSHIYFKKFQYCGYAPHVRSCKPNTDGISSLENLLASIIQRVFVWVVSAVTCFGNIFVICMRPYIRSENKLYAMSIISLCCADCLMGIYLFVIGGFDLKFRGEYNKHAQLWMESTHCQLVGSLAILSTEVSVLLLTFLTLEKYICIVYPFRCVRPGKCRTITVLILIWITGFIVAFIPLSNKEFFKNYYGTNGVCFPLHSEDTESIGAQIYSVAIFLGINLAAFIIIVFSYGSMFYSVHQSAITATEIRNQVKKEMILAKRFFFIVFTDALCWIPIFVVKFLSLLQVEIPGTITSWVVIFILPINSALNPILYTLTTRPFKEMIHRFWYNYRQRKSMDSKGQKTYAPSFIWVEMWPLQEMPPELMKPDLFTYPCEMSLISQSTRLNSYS
# Assay: hRXFP1 HEK293 cAMP assay (HTRF)
# Type: cell-based
# Details: HEK293 cells stably expressing human RXFP1, 30 min at room temperature
# How it was run: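 HEK293 cells stably expressing human RXFP1 were suspended in HBSS (Ca/Mg) with 20 mM HEPES, 0.05% BSA and 0.5 mM IBMX, then treated with compounds (0.010 nM–50 μM, 2% DMSO final) for 30 min at room temperature. Intracellular cAMP was measured by HTRF, and potency was derived from 4-parameter logistic fits.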
row,SMILES,pEC50
1,"COc1ccc(CCN2CCOC2=O)cc1C(=O)NC1C2CCC(/C2=C/C2CCC2)[C@@H]1C(=O)Nc1ccc(F)c(C(F)(F)F)c1 (stereo partly drawn) [Example 191, (7Z)-7-(cyclobutylmethyl-idene)-N-[4-fluoro-3-(trifluoromethyl)phe-nyl]-3-{2-methoxy-5-[2-(2-oxo-1,3-oxazolidin-3-yl)ethyl]benzamido} bicyclo[2.2.1]heptane-2-carboxamide]",7.40
2,"COc1ccc(CCCCCCC#N)cc1C(=O)NC1C2CCC(/C2=C/C2CCC2)[C@@H]1C(=O)Nc1ccc(F)c(C(F)(F)F)c1 (stereo partly drawn) [Example 192, (7Z)-3-[5-(6-cyanohexyl)-2-methoxybenzamido]-7-(cyclobutylmethyl-idene)-N-[4-fluoro-3-(trifluoromethyl)phe-nyl]bicyclo[2.2.1] heptane-2-carboxamide]",7.48
3,"COc1ccc(CC2CCOCC2)cc1C(=O)NC1C2CCC(/C2=C/C2CCC2)[C@@H]1C(=O)Nc1ccc(F)c(C(F)(F)F)c1 (stereo partly drawn) [Example 194, (7Z)-7-(cyclobutylmethyli-dene)-N-[4-fluoro-3-(trifluoromethyl)phe-nyl]-3-{2-methoxy-5-[(oxan-4-yl)methyl]benzamido} bicyclo[2.2.1]hept-ane-2-carboxamide]",7.12
4,"COc1ccc(S(=O)(=O)NC[C@H](C)O)cc1C(=O)N[C@@H]1C2CCC(/C2=C/C(F)(F)F)[C@@H]1C(=O)Nc1ccc(F)c(C(F)(F)F)c1 (stereo partly drawn) [Example 197, (1R,2S,3R,4R,Z)—N-(4-fluoro-3-(trifluoromethyl)phenyl)-3-(5-(N—((S)-2-hydroxypropyl)sulfamoyl)-2-methoxybenzamido)-7-(2,2,2-trifluoroethylidene) bicyclo[2.2.1]heptane-2-carboxamide]",6.04
5,"COc1ccc(S(=O)(=O)NC2CCOC2)cc1C(=O)NC1C2CCC(/C2=C/C(F)(F)F)[C@@H]1C(=O)Nc1ccc(F)c(C(F)(F)F)c1 (stereo partly drawn) [Example 198, (2S,3R,7Z)-N-[4-fluoro-3-(trifluoromethyl)phe-nyl]-3-{2-methoxy-5-[(oxolan-3-yl)sulfamoyl]benza-mido}-7-(2,2,2-trifluoroethylidene)bi-cyclo[2.2.1]heptane-2-carboxamide]",5.72
6,"COc1ccc(S(=O)(=O)N2CCOCC2)cc1C(=O)NC1C2CCC(/C2=C/C(F)(F)F)[C@@H]1C(=O)Nc1ccc(F)c(C(F)(F)F)c1 (stereo partly drawn) [Example 199, (2S,3R,7Z)-N-[4-fluoro-3-(trifluoromethyl)phe-nyl]-3-[2-methoxy-5-(morpholine-4-sulfonyl)benzamido]-7-(2,2,2-triflurooethylidene)bi-cyclo[2.2.1]heptane-2-carboxamide]",6.14

# Other lines, results leading:
row,pEC50,SMILES
1,7.26,"COc1ccc(CCCCC(F)(F)F)cc1C(=O)NC1C2CCC(/C2=C/C2CCC2)[C@@H]1C(=O)Nc1ccc(F)c(C(F)(F)F)c1 (stereo partly drawn) [Example 193, (7Z)-7-(cyclobutylmethyli-dene)-N-[4-fluoro-3-(trifluoromethyl)phe-nyl]-3-[2-methoxy-5-(5,5,5-trifluoropentyl)benz-amido]bicyclo[2.2.1] heptane-2-carboxamide]"
2,7.23,"COc1ccc(CCCC(F)(F)F)cc1C(=O)NC1C2CCC(/C2=C/C2CCC2)[C@@H]1C(=O)Nc1ccc(F)c(C(F)(F)F)c1 (stereo partly drawn) [Example 195, (7Z)-7-(cyclobutylmethylidene)-N-[4-fluoro-3-(trifluoromethyl)phe-nyl]-3-[2-methoxy-5-(4,4,4-trifluorobutyl)benza-mido]bicyclo[2.2.1] heptane-2-carboxamide]"
3,7.49,"COc1ccc(CCCC(F)F)cc1C(=O)NC1C2CCC(/C2=C/C2CCC2)[C@@H]1C(=O)Nc1ccc(F)c(C(F)(F)F)c1 (stereo partly drawn) [Example 196, (7Z)-7-(cyclobutylmethyl-idene)-3-[5-(4,4-difluorobutyl)-2-methoxybenzamido]-N-[4-fluoro-3-(trifluoromethyl)phe-nyl]bicyclo[2.2.1] heptane-2-carboxamide]"
